Experiments:
[1] = target: T1, ATP-binding cassette sub-family C member 2 (Rattus norvegicus, UniProt Q63120); experiment: TP_TRANSPORTER: uptake in bile canalicular membrane vesicles (SD); type: functional, cell membranes, Sprague-Dawley, Bile canalicular membrane vesicle
[2] = target: T1, ATP-binding cassette sub-family C member 2; experiment: TP_TRANSPORTER: uptake in bile canalicular membrane vesicles (EHBR); type: functional, cell membranes, Bile canalicular membrane vesicle
[3] = target: T1, ATP-binding cassette sub-family C member 2; experiment: TP_TRANSPORTER: inhibition of DNP-SG uptake in bile canalicular membrane vesicles from SD rat; type: functional, cell membranes, Sprague-Dawley, Bile canalicular membrane vesicle
[4] = target: T1, ATP-binding cassette sub-family C member 2; experiment: TP_TRANSPORTER: uptake in canalicular membrane vesicles of liver (EHBR); type: functional, cell membranes, Canalicular membrane vesicle
[5] = target: T1, ATP-binding cassette sub-family C member 2; experiment: TP_TRANSPORTER: uptake in canalicular membrane vesicles of liver (SD); type: functional, cell membranes, Sprague-Dawley, Canalicular membrane vesicle

T1 sequence (Q63120 whole entry): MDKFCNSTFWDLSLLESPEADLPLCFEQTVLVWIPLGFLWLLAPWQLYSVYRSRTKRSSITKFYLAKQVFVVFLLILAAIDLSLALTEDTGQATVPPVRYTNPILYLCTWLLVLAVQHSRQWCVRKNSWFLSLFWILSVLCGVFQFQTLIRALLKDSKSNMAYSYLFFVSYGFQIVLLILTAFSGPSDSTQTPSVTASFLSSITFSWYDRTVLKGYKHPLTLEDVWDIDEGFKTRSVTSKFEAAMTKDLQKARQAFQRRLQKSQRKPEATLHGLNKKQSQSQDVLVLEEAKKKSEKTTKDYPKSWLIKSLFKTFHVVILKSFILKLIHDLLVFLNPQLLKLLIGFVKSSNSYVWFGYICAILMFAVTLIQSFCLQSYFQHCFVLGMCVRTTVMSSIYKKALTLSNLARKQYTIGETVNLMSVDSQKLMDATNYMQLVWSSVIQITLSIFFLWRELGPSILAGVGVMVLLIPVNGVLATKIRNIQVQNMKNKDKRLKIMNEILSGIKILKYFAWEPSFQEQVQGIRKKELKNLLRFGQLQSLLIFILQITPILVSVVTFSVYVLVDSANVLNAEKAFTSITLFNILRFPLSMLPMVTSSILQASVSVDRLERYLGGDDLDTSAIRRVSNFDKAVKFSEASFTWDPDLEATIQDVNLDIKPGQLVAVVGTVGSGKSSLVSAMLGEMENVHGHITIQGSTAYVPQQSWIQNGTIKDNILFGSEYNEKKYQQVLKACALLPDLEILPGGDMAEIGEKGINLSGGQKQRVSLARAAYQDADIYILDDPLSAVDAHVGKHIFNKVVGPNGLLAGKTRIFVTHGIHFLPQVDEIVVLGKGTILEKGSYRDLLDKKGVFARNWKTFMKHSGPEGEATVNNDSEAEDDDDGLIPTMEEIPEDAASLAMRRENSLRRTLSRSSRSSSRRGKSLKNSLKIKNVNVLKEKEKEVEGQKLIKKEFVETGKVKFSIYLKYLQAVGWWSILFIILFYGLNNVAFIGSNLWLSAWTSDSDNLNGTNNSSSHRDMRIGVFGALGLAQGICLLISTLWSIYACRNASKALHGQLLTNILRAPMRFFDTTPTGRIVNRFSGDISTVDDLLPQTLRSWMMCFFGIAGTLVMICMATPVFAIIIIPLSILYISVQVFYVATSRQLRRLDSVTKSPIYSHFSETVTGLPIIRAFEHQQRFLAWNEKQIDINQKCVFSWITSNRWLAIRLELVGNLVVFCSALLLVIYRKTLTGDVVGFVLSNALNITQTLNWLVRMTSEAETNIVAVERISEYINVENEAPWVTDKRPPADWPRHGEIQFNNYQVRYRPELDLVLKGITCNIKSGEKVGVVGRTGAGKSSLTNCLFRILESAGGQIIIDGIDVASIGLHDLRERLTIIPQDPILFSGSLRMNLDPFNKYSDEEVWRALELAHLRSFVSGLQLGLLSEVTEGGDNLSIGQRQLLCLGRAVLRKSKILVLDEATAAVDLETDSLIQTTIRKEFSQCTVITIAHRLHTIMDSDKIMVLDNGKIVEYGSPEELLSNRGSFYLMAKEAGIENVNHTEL

Row | SMILES | Activity [1] | Activity [2] | Ki [3] [µM] | Activity [4] | Activity [5]
1 | CCc1c2c(nc3ccc(O)cc13)-c1cc([C@@](O)(CC)C(=O)O)c(CO)c(=O)n1C2 | substrate [+] | substrate [+] | 18.3 |  | 
2 | CCc1c2c(nc3ccc(OC[C@@H]4O[C@H](C(=O)O)[C@@H](O)[C@H](O)[C@H]4O)cc13)-c1cc3c(c(=O)n1C2)COC(=O)[C@]3(O)CC | substrate [+] | substrate [+] | 1.62 |  | 
3 | CCc1c2c(nc3ccc(O[C@@H]4O[C@H](C(=O)O)[C@@H](O)[C@H](O)[C@H]4O)cc13)-c1cc([C@@](O)(CC)C(=O)O)c(CO)c(=O)n1C2 | substrate [+] | substrate [+] | 1.03 |  | 
4 | CCc1c2c(nc3ccc(OC(=O)N4CCC(N5CCCCC5)CC4)cc13)-c1cc([C@@](O)(CC)C(=O)O)c(CO)c(=O)n1C2 |  |  | 96.6 | substrate [+] | substrate [+]
